How the values were obtained:
Experiment in all cases: relative viability (nuclei count vs DMSO), 5 days (fraction); higher = more cells survive
[1] = system: NCI-H1563
Outline: (§1)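 Five library-drug doses in √10 steps were combined with a fixed anchor-drug dose, or a single drug was given alone, by pin tool to lung cancer cell lines in 1536-well plates the day after seeding. Nuclei were stained and counted after 5 days. Relative viability is the nuclei count in treated wells over that in vehicle wells, taken as the median of duplicate plates.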

[2] = system: NCI-H1623
Outline: as §1

[3] = system: NCI-H2342
Outline: as §1

[4] = system: NCI-H522
Outline: as §1

[5] = system: SW 900
Outline: as §1

[6] = system: A549
Outline: as §1

[7] = system: NCI-H1648
Outline: as §1

[8] = system: NCI-H1703
Outline: as §1

O=c1[nH]c2ccccc2n1C1CCN(CCCC(c2ccc(F)cc2)c2ccc(F)cc2)CC1 [Pimozide] + CCNC(=O)c1noc(-c2cc(C(C)C)c(O)cc2O)c1-c1ccc(CN2CCOCC2)cc1 [Luminespib] (partner 0.01 µM) gave a relative viability ([1]; first compound 0.08 µM) of 0.511, a relative viability ([1]; first compound 0.253 µM) of 0.513 and a relative viability ([1]; first compound 0.8 µM) of 0.516. The relative viability ([1]; first compound 2.53 µM) was 0.549, the relative viability ([1]; first compound 8 µM) was 0.496 and the relative viability ([2]; first compound 0.253 µM) was 0.515. The relative viability ([2]; first compound 0.8 µM) was 0.487, the relative viability ([2]; first compound 2.53 µM) was 0.521 and the relative viability ([2]; first compound 8 µM) was 0.447. It also gave a relative viability ([3]; first compound 0.08 µM) of 0.616, a relative viability ([3]; first compound 0.253 µM) of 0.685 and a relative viability ([3]; first compound 0.8 µM) of 0.611. For the same compound, the relative viability ([3]; first compound 2.53 µM) was 0.739, the relative viability ([3]; first compound 8 µM) was 0.696 and the relative viability ([4]; first compound 0.08 µM) was 1.01. The relative viability ([4]; first compound 0.253 µM) was 1.08, the relative viability ([4]; first compound 0.8 µM) was 1.21 and the relative viability ([4]; first compound 2.53 µM) was 1.21. It also gave a relative viability ([4]; first compound 8 µM) of 1.24, a relative viability ([5]; first compound 0.08 µM) of 0.163 and a relative viability ([5]; first compound 0.253 µM) of 0.157. It also gave a relative viability ([5]; first compound 0.8 µM) of 0.18, a relative viability ([5]; first compound 2.53 µM) of 0.192 and a relative viability ([5]; first compound 8 µM) of 0.181.

Work on Cc1cnc(-c2cnc(NCCNc3ccc(C#N)cn3)nc2-c2ccc(Cl)cc2Cl)[nH]1 + CCNC(=O)c1noc(-c2cc(C(C)C)c(O)cc2O)c1-c1ccc(CN2CCOCC2)cc1 [Luminespib] (partner 0.01 µM) yielded a relative viability ([1]; first compound 0.08 µM) of 0.473, a relative viability ([1]; first compound 0.253 µM) of 0.535 and a relative viability ([1]; first compound 0.8 µM) of 0.499. For the same compound, the relative viability ([1]; first compound 2.53 µM) was 0.439, the relative viability ([2]; first compound 0.08 µM) was 0.594 and the relative viability ([2]; first compound 0.253 µM) was 0.622. The relative viability ([2]; first compound 0.8 µM) was 0.542, the relative viability ([2]; first compound 2.53 µM) was 0.507 and the relative viability ([3]; first compound 0.08 µM) was 0.825. It also gave a relative viability ([3]; first compound 0.253 µM) of 0.654, a relative viability ([3]; first compound 0.8 µM) of 0.694 and a relative viability ([3]; first compound 2.53 µM) of 0.584. For the same compound, the relative viability ([4]; first compound 0.08 µM) was 1.14, the relative viability ([4]; first compound 0.253 µM) was 1.02 and the relative viability ([4]; first compound 0.8 µM) was 0.99. The relative viability ([4]; first compound 2.53 µM) was 1.31, the relative viability ([5]; first compound 0.08 µM) was 0.196 and the relative viability ([5]; first compound 0.253 µM) was 0.168. For the same compound, the relative viability ([5]; first compound 0.8 µM) was 0.206 and the relative viability ([5]; first compound 2.53 µM) was 0.203.

O=c1[nH]c2ccccc2n1C1CCN(CCCC(c2ccc(F)cc2)c2ccc(F)cc2)CC1 [Pimozide] + N=C(N)NC(=N)NCCc1ccccc1 [Phenformin] (partner 250 µM) showed a relative viability ([6]; first compound 0.08 µM) of 0.154, a relative viability ([6]; first compound 0.253 µM) of 0.171 and a relative viability ([6]; first compound 0.8 µM) of 0.152. The relative viability ([6]; first compound 2.53 µM) was 0.156, the relative viability ([6]; first compound 8 µM) was 0.173 and the relative viability ([1]; first compound 0.08 µM) was 0.721. For the same compound, the relative viability ([1]; first compound 0.253 µM) was 0.771, the relative viability ([1]; first compound 0.8 µM) was 0.668 and the relative viability ([1]; first compound 2.53 µM) was 0.663. It also gave a relative viability ([1]; first compound 8 µM) of 0.64, a relative viability ([2]; first compound 0.253 µM) of 0.575 and a relative viability ([2]; first compound 0.8 µM) of 0.57. The relative viability ([2]; first compound 2.53 µM) was 0.617, the relative viability ([2]; first compound 8 µM) was 0.629 and the relative viability ([3]; first compound 0.08 µM) was 0.655. It also gave a relative viability ([3]; first compound 0.253 µM) of 0.543, a relative viability ([3]; first compound 0.8 µM) of 0.555 and a relative viability ([3]; first compound 2.53 µM) of 0.536. It also gave a relative viability ([3]; first compound 8 µM) of 0.639, a relative viability ([4]; first compound 0.08 µM) of 0.569 and a relative viability ([4]; first compound 0.253 µM) of 0.655. For the same compound, the relative viability ([4]; first compound 0.8 µM) was 0.628, the relative viability ([4]; first compound 2.53 µM) was 0.804 and the relative viability ([4]; first compound 8 µM) was 0.671. It also gave a relative viability ([5]; first compound 0.08 µM) of 0.574, a relative viability ([5]; first compound 0.253 µM) of 0.685 and a relative viability ([5]; first compound 0.8 µM) of 0.375. The relative viability ([5]; first compound 2.53 µM) was 0.552 and the relative viability ([5]; first compound 8 µM) was 0.516.

In the case of O=c1[nH]c2ccccc2n1C1CCN(CCCC(c2ccc(F)cc2)c2ccc(F)cc2)CC1 [Pimozide] + NC(=O)Nc1cc(-c2cccc(F)c2)sc1C(=O)N[C@H]1CCCNC1 [AZD7762] (partner 0.2 µM), the relative viability ([7]; first compound 0.08 µM) is reported as 0.568, the relative viability ([7]; first compound 0.8 µM) is reported as 0.52 and the relative viability ([7]; first compound 2.53 µM) is reported as 0.584. For the same compound, the relative viability ([7]; first compound 8 µM) was 0.698, the relative viability ([8]; first compound 0.08 µM) was 0.129 and the relative viability ([8]; first compound 0.253 µM) was 0.109. The relative viability ([8]; first compound 0.8 µM) was 0.0889, the relative viability ([8]; first compound 2.53 µM) was 0.1 and the relative viability ([8]; first compound 8 µM) was 0.122. For the same compound, the relative viability ([3]; first compound 0.08 µM) was 0.524, the relative viability ([3]; first compound 0.253 µM) was 0.526 and the relative viability ([3]; first compound 0.8 µM) was 0.465. It also gave a relative viability ([3]; first compound 2.53 µM) of 0.48, a relative viability ([3]; first compound 8 µM) of 0.492 and a relative viability ([4]; first compound 0.08 µM) of 0.963. It also gave a relative viability ([4]; first compound 0.253 µM) of 0.835, a relative viability ([4]; first compound 0.8 µM) of 0.857 and a relative viability ([4]; first compound 2.53 µM) of 0.77. For the same compound, the relative viability ([4]; first compound 8 µM) was 0.872, the relative viability ([5]; first compound 0.08 µM) was 0.524 and the relative viability ([5]; first compound 0.253 µM) was 0.599. The relative viability ([5]; first compound 2.53 µM) was 0.591 and the relative viability ([5]; first compound 8 µM) was 0.478.

Compound O=C(O)CCCCC(CCSCc1ccccc1)SCc1ccccc1 (stereo unspecified) [CPI-613] + N=C(N)NC(=N)NCCc1ccccc1 [Phenformin] (partner 250 µM) has a relative viability ([6]; first compound 5 µM) of 0.162, a relative viability ([6]; first compound 15.81 µM) of 0.172 and a relative viability ([6]; first compound 50 µM) of 0.178. For the same compound, the relative viability ([6]; first compound 158.11 µM) was 0.131, the relative viability ([6]; first compound 500 µM) was 0.107 and the relative viability ([1]; first compound 5 µM) was 0.638. It also gave a relative viability ([1]; first compound 15.81 µM) of 0.588, a relative viability ([1]; first compound 50 µM) of 0.637 and a relative viability ([1]; first compound 158.11 µM) of 0.503. It also gave a relative viability ([1]; first compound 500 µM) of 0.27, a relative viability ([2]; first compound 5 µM) of 0.63 and a relative viability ([2]; first compound 15.81 µM) of 0.565. It also gave a relative viability ([2]; first compound 50 µM) of 0.573, a relative viability ([2]; first compound 158.11 µM) of 0.488 and a relative viability ([2]; first compound 500 µM) of 0.551. The relative viability ([3]; first compound 5 µM) was 0.636, the relative viability ([3]; first compound 15.81 µM) was 0.589 and the relative viability ([3]; first compound 50 µM) was 0.586. It also gave a relative viability ([3]; first compound 158.11 µM) of 0.487, a relative viability ([3]; first compound 500 µM) of 0.638 and a relative viability ([4]; first compound 5 µM) of 0.681. It also gave a relative viability ([4]; first compound 15.81 µM) of 0.672, a relative viability ([4]; first compound 50 µM) of 0.625 and a relative viability ([4]; first compound 158.11 µM) of 0.588. The relative viability ([4]; first compound 500 µM) was 0.399, the relative viability ([5]; first compound 5 µM) was 0.579 and the relative viability ([5]; first compound 15.81 µM) was 0.542. For the same compound, the relative viability ([5]; first compound 50 µM) was 0.4, the relative viability ([5]; first compound 158.11 µM) was 0.305 and the relative viability ([5]; first compound 500 µM) was 0.03.

Reference: the supplement of paper PMC10307832
